Structures are written as SMILES. pIC50: −log10 of the molar value.

A short description of series [1]: Plasma concentration in CD1 mouse xenografted with mouse CT26 cells overexpressing human IDO1 at 3 mg/kg, po administered as single dose measured after 2 hrs by mass spectrometry. In kind it is ADME, organism-based. A general note: A xenograft is tissue or cells of one species grown in another, often human tumour cells in immunodeficient mice.
A short description of series [2]: Plasma concentration in CD1 mouse xenografted with mouse CT26 cells overexpressing human IDO1 at 3 mg/kg, po administered as single dose measured after 4 hrs by mass spectrometry. In kind it is ADME, organism-based.
A short description of series [3]: Plasma concentration in CD1 mouse xenografted with mouse CT26 cells overexpressing human IDO1 at 3 mg/kg, po administered as single dose measured after 8 hrs by mass spectrometry. In kind it is ADME, organism-based.
Series [4] can be described thus: Plasma concentration in CD1 mouse xenografted with mouse CT26 cells overexpressing human IDO1 at 3 mg/kg, po administered as single dose measured after 16 hrs by mass spectrometry. Format: ADME, organism-based. Conditions: in vivo, BLD = below limit of detection.
Series [5] is described as follows: Unbound clearance in Wistar Han rat by LC-MS/MS analysis. In kind it is ADME. Conditions: in vivo.
Series [6] in a line: Clearance in dog. Format: ADME, Canis lupus familiaris. The settings on record: in vivo.
Series [7] in a line: Unbound clearance in dog. Format: ADME, Canis lupus familiaris. Conditions: in vivo.
Series [8] deals with T1, Indoleamine 2,3-dioxygenase 1 (Homo sapiens, UniProt P14902). Put plainly: Inhibition of IDO1 in human HeLa cells. In kind it is cell-based.
Target sequence in this assay (P14902 whole entry): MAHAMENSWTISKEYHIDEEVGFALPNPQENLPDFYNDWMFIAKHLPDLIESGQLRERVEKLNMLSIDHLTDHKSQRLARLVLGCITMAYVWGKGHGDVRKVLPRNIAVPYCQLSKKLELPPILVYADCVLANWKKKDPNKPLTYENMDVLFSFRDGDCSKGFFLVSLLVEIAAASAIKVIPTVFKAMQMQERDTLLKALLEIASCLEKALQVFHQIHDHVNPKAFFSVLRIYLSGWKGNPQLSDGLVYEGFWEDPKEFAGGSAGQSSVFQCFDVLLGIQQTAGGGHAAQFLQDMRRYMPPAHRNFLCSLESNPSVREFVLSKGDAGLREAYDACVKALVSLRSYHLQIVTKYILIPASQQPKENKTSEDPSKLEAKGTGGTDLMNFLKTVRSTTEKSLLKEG
In series [9] the target is T1, Indoleamine 2,3-dioxygenase 1. Put plainly: Inhibition of IDO1 in IFNgamma/LPS stimulated human whole blood assessed as reduction in kynurenine production using tryptophan as substrate preincubated with compound for 15 mins followed by incubation with IFNgamma/LPS for overnight by LC/MS/MS analysis. Format: tissue-based.
Series [10] in a line: Clearance in Wistar Han rat by LC-MS/MS analysis. Conditions: in vivo. In kind it is ADME.
The nature of series [11]: Volume of distribution in Wistar Han rat by LC-MS/MS analysis. Format: ADME. The settings on record: in vivo.
Series [12] is described as follows: Volume of distribution in dog. Format: ADME, Canis lupus familiaris. Conditions: in vivo.
Series [13] in a line: Half life in Wistar Han rat by LC-MS/MS analysis. Conditions: in vivo. In kind it is ADME.
A short description of series [14]: Half life in dog. In kind it is ADME, Canis lupus familiaris. The settings on record: in vivo.
Series [15] is described as follows: Oral bioavailability in Wistar Han rat by LC-MS/MS analysis. In kind it is ADME, organism-based. Conditions: in vivo.
Series [16] can be described thus: Oral bioavailability in dog. Conditions: in vivo. Format: ADME, organism-based, Canis lupus familiaris.
The nature of series [17]: Lipophilicity, logD of the compound by HPLC analysis. In kind it is physicochemical.

As to `Cc1nccc(N2CCCc3nc(C4(NC(=O)c5ccc(F)cc5)CC4)ccc32)n1`, in [1], the concentration at 2 h was 210 nM. In series [2], this compound came in with a concentration at 4 h of 90 nM. For the same compound, in [3], the concentration at 8 h worked out at 30 nM. The Cp result in series [4] is “Bld”.

For orientation: clearance means the rate of elimination divided by the concentration. Read a low clearance as a low capacity for elimination. By pIC50 is commonly meant the negative decadic logarithm of the IC50, by convention in mol/L. For orientation: Vd means a proportionality between amount in the body and measured concentration, not a real space. Read a low Vd as confinement near the circulation. Usually half-life stands for the time in which the quantity being followed falls by half. Broadly, the bioavailability is the share of a dose that reaches the circulation, judged against a reference dose that is usually intravenous. Read a low bioavailability as little systemic uptake. A word on the logD: it is lipophilicity at a set pH, counting ionised and neutral species. Low values mean lower lipophilicity, high ones higher lipophilicity. As for `Cc1nccc(N2C[C@@H]3C[C@@H]3c3nc(C4(NC(=O)c5ccc(F)cc5)CC4)ccc32)n1`, the CL free in [5] was 307 mL/min/kg; in series [7] it was 26 mL/min/kg. The clearance came to 12.3 mL/min/kg in [6] and 16.7 mL/min/kg in [10]. The figures for the pIC50 in series [8] and in series [9] were 8.70 and 7.80, respectively. For the same compound, in series [9], the fIC50 amounted to 0.8 nM. Besides, the values for the distribution volume (Vd) in series [11] and in series [12] were 1.4 L/kg and 1.3 L/kg, respectively. Also, the results for the half-life in series [13] and in [14] were 1.9 h and 9 h, respectively. Besides, the bioavailability in [15] and in [16] was 46% each time. In [17], the log distribution coefficient (logD) came to 2.4.

The values above are taken from ChEMBL document CHEMBL4825761, “Utilization of Metabolite Identification and Structural Data to Guide Design of Low-Dose IDO1 Inhibitors” (ACS Med Chem Lett, 2021).
